Laboratory results as given in US11700853B2, “Plant health compositions comprising a water-soluble pesticide and a water-insoluble agrochemical” (priority 2010, dated 2023).
≈ marks a conversion by molar mass, not a printed value.

Experiments:
[1] = at 20° C.; cited from earlier work
[2] = Dissolution/melting temperature in surfactants by differential scanning calorimetry (DSC); settings: for effect of surfactants on dissolution/melting temperature: cationic, nonionic and anionic surfactants tested, compared to absence of a surfactant
[3] = Dissolution in surfactants at 20% w/v on heating in a water bath, then cooling to room temperature; settings: for Dissolution temp.: temperature at which the mixture cleared
[4] = 20% w/v in AGM-550, cooled to 20-25° C. after 45 ° C.
[5] = 20% w/v in Ethomeen T/15, cooled to 20-25° C. after 50 ° C.
[6] = 20% w/v in Ethomeen T/15 at 45 ° C.
[7] = 20% w/v in Ethomeen T/15 at 50 ° C.
[8] = 20% w/v in coco quaternary amine 2 EO (Ethoquad C/12)
[9] = 20% w/v in cocoamine 2EO (Ethomeen C/12)

## C=CCNC(=O)c1c([Si](C)(C)C)sc(C)c1C [silithiofam]
[1]
  water solubility (Solub.): 39.9 µg/mL (≈ 149 µM)

## CC(C)(C)C(O)(CCc1ccc(Cl)cc1)Cn1cncn1 (stereo not drawn) [tebuconazole]
[2]; 40 wt % in ethoxylated cocoamine (2EO) surfactant, FIG. 14
  melting/dissolution point: 71 °C
[2]; 65 wt % in ethoxylated cocoamine (2EO) surfactant, FIG. 14
  melting/dissolution point: 91 °C
[2]; amidopropylamine surfactant
  dissolution/melting point, rank among surfactants tested: lowest
[2]
  effect of surfactants on dissolution/melting temperature: reduced
[3]; [4]
  Observation at room temp.: Dissolved
[3]; 20% w/v in AGM-550
  Dissolution temp.: 45 °C
[3]; 20% w/v in AGM-550 at 45 ° C.
  Observation: Dissolved
[3]; 20% w/v in Armeen APA 9, cooled to 20-25° C. after 40 ° C.
  Observation at room temp.: Dissolved
[3]; 20% w/v in Armeen APA 9
  Dissolution temp.: 40 °C
[3]; 20% w/v in Armeen APA 9 at 40 ° C.
  Observation: Dissolved
[3]; 20% w/v in Ethomeen C/12, cooled to 20-25° C. after 45 ° C.
  Observation at room temp.: Dissolved
[3]; 20% w/v in Ethomeen C/12 at 45 ° C.
  Observation: Dissolved
[3]; [5]
  Observation at room temp.: Dissolved
[3]; 20% w/v in Ethomeen T/15
  Dissolution temp.: 50 °C
[3]; [6]
  Observation: Not Dissolved
[3]; [7]
  Observation: Dissolved
[3]; 20% w/v in Ethoquad C/12, cooled to 20-25° C. after 45 ° C.
  Observation at room temp.: Dissolved
[3]; 20% w/v in Ethoquad C/12 at 45 ° C.
  Observation: Dissolved
[3]; 20% w/v in Surfonic L24-9, cooled to 20-25° C. after 50 ° C.
  Observation at room temp.: Dissolved
[3]; 20% w/v in Surfonic L24-9
  Dissolution temp.: 50 °C
[3]; 20% w/v in Surfonic L24-9 at 45 ° C.
  Observation: Not Dissolved
[3]; 20% w/v in Surfonic L24-9 at 50 ° C.
  Observation: Dissolved
[3]; 20% w/v in alkylamine oxide at 45 ° C.
  Observation: Dissolved
[3]; 20% w/v in alkylamine oxide, cooled to 20-25° C. after 45 ° C.
  Observation at room temp.: Dissolved
[3]; 20% w/v in alkylamine oxide
  Dissolution temp.: 45 °C
[3]; [8]
  Dissolution temp.: 45 °C
[3]; [9]
  Dissolution temp.: 45 °C

## CC(=O)O.CC1CN(C2CCCCCCCCCCC2)CC(C)O1 (stereo not drawn) [dedemorph acetate]
[1]
  water solubility (Solub.): 736 µg/mL

## CCOC(=O)C1=NN(c2ccc(Cl)cc2Cl)C(C)(C(=O)OCC)C1 (stereo not drawn) [mefenpyr-diethyl]
[1]
  water solubility (Solub.): 20 µg/mL (≈ 53.6 µM)

## butafenamid
[1]
  water solubility (Solub.): 3.3 µg/mL

## CO/C=C(/C(=O)OC)c1ccccc1COc1cccc(C(F)(F)F)n1 [picoxystrobin]
[1]
  water solubility (Solub.): 3.1 µg/mL (≈ 8.44 µM)

## Cc1ccc(N(SC(F)(Cl)Cl)S(=O)(=O)N(C)C)cc1 [tolyfluanid]
[1]
  water solubility (Solub.): 0.9 µg/mL (≈ 2.59 µM)

## CCOC(=O)[C@@H](C)Oc1ccc(Oc2nc3ccc(Cl)cc3o2)cc1 [fenoxaprop-P-ethyl]
[1]
  water solubility (Solub.): 0.7 µg/mL (≈ 1.93 µM)

## COP(=O)(OC)O/C(=C\Cl)c1ccc(Cl)cc1Cl [dimethylvinphos]
[1]
  water solubility (Solub.): 0.13 µg/mL (≈ 0.392 µM)

## COP(=S)(OC)Oc1c(Cl)cc(C)cc1Cl [tolclofos-methyl]
[1]
  water solubility (Solub.): 1.1 µg/mL (≈ 3.65 µM)

## CCC(Oc1ccc(F)c(C(F)(F)F)c1)C(=O)NCc1ccccc1 (stereo not drawn) [beflubutamid]
[1]
  water solubility (Solub.): 3.3 µg/mL (≈ 9.29 µM)

## CCOC(=O)[C@@H](C)Oc1ccc(Oc2cnc3cc(Cl)ccc3n2)cc1 [quizalofop-P-ethyl]
[2]; 40 wt % in C6-9 amidopropyl dimethylamine surfactant (ARMEEN APA 9), FIG. 16
  melting/dissolution point: 63 °C
[2]; 65 wt % in C6-9 amidopropyl dimethylamine surfactant (ARMEEN APA 9), FIG. 16
  melting/dissolution point: 69 °C
[2]
  effect of surfactants on dissolution/melting temperature: reduced
[3]; [4]
  Observation at room temp.: Dissolved
[3]; 20% w/v in AGM-550
  Dissolution temp.: 45 °C
[3]; 20% w/v in AGM-550 at 45 ° C.
  Observation: Dissolved
[3]; 20% w/v in Armeen APA 9, cooled to 20-25° C. after 50 ° C.
  Observation at room temp.: Dissolved
[3]; 20% w/v in Armeen APA 9
  Dissolution temp.: 50 °C
[3]; 20% w/v in Armeen APA 9 at 45 ° C.
  Observation: Not Dissolved
[3]; 20% w/v in Armeen APA 9 at 50 ° C.
  Observation: Dissolved
[3]; 20% w/v in Ethomeen C/12, cooled to 20-25° C. after 55 ° C.
  Observation at room temp.: Dissolved
[3]; 20% w/v in Ethomeen C/12, cooled to 20-25° C. after 65 ° C.
  Observation at room temp.: Dissolved
[3]; 20% w/v in Ethomeen C/12 at 50 ° C.
  Observation: Not Dissolved
[3]; 20% w/v in Ethomeen C/12 at 55 ° C.
  Observation: Dissolved
[3]; 20% w/v in Ethomeen C/12 at 65 ° C.
  Observation: Dissolved
[3]; [5]
  Observation at room temp.: Dissolved
[3]; 20% w/v in Ethomeen T/15
  Dissolution temp.: 50 °C
[3]; [6]
  Observation: Not Dissolved
[3]; [7]
  Observation: Dissolved
[3]; 20% w/v in Ethoquad C/12, cooled to 20-25° C. after 65 ° C.
  Observation at room temp.: Dissolved
[3]; 20% w/v in Ethoquad C/12 at 55 ° C.
  Observation: Not Dissolved
[3]; 20% w/v in Ethoquad C/12 at 65 ° C.
  Observation: Dissolved
[3]; 20% w/v in alkylamine oxide at 60 ° C.
  Observation: Dissolved
[3]; 20% w/v in alkylamine oxide, cooled to 20-25° C. after 60 ° C.
  Observation at room temp.: Dissolved
[3]; 20% w/v in alkylamine oxide
  Dissolution temp.: 60 °C
[3]; [8]
  Dissolution temp.: 65 °C
[3]; [9]
  Dissolution temp.: 55 °C

## CCOP(=S)(OCC)Oc1ccc(=O)n(-c2ccccc2)n1 [pyridaphenthion]
[1]
  water solubility (Solub.): 55.2 µg/mL (≈ 162 µM)

## CCC(C)c1cc([N+](=O)[O-])cc([N+](=O)[O-])c1OC(=O)OC(C)C (stereo not drawn) [dinobuton]
[1]
  water solubility (Solub.): 0.1 µg/mL (≈ 0.306 µM)

## CC1CN(C2CCCCCCCCCCC2)CC(C)O1 (stereo not drawn) [dodemorph]
[1]
  water solubility (Solub.): <100 µg/mL

## beta-cypermemethrin
[1]
  water solubility (Solub.): 51.5 µg/mL

## anilofos
[1]
  water solubility (Solub.): 13.6 µg/mL

## CCCCCOC(=O)COc1cc(N2C(=O)C3=C(CCCC3)C2=O)c(F)cc1Cl [flumiclorac-pentyl]
[1]
  water solubility (Solub.): 0.2 µg/mL (≈ 0.472 µM)

## C=CCOC(Cn1ccnc1)c1ccc(Cl)cc1Cl (stereo not drawn) [imazalil]
[1]
  water solubility (Solub.): 0.1 µg/mL (≈ 0.336 µM)

## CCOC(=O)C(C)Oc1ccc(Oc2nc3ccc(Cl)cc3o2)cc1 (stereo not drawn) [fenoxaprop-ethyl]
[1]
  water solubility (Solub.): 0.9 µg/mL (≈ 2.49 µM)

## CCOC(=O)C(C)Oc1ccc(Oc2ncc(C(F)(F)F)cc2Cl)cc1 (stereo not drawn) [haloxyfop-ethyl]
[1]
  water solubility (Solub.): 0.6 µg/mL (≈ 1.54 µM)

## CC(Oc1ccc(Cl)cc1Cl)C(=O)NC(C)(C#N)C(C)C (stereo not drawn) [fenoxanil]
[1]
  water solubility (Solub.): 30.7 µg/mL (≈ 93.2 µM)

## C#CCOc1ccc(CCNC(=O)C(OCC#C)c2ccc(Cl)cc2)cc1OC (stereo not drawn) [mandipropamid]
[1]
  water solubility (Solub.): 4.2 µg/mL (≈ 10.2 µM)

## CCOC(=O)NCCOc1ccc(Oc2ccccc2)cc1 [fenoxycarb]
[1]
  water solubility (Solub.): 7.9 µg/mL (≈ 26.2 µM)

## CCOCOc1ccc(C(=O)Nc2cccc(Cl)c2Cl)cc1 [etobenzanid]
[1]
  water solubility (Solub.): 0.9 µg/mL (≈ 2.65 µM)

## CC(C)(C)C(=O)C(Oc1ccc(Cl)cc1)n1cncn1 (stereo not drawn) [triadimefon]
[1]
  water solubility (Solub.): 64 µg/mL (≈ 218 µM)
